Values quoted from earlier work as cited in patent US20230354835A1, “USE OF LIQUID SMOKE IN CONJUNCTION WITH FOOD GRADE COATINGS TO CONTROL PEST INFESTATIONS” (Mississippi State University, priority 2022, published 2023).

Tested on: Tyrophagus putrescentiae
Conditions: Abbar et al., 2016a; coating on ham cubes 2.5×2.5×2.5 cm^3

CC(O)CO (stereo not shown) [100% propylene glycol, 1,2-propanediol]
Inhibition of mite growth on dry-cured ham cubes (in words): effective at inhibiting mite growth
